Reference: patent US5182289A, “Heterobicyclic compounds having antiinflammatory activity” (Schering Corporation, priority 1990, dated 1993)
Like-named read-outs stand apart in the source and are kept apart here.

How the values were obtained:
[1] = test system: Reversed Passive Arthus Reaction (RPAR) in the pleural cavity; test: Reversed Passive Arthus Reaction (RPAR) in the pleural cavity: cells and fluid; type: in vivo, male rats; conditions: Rattus norvegicus, 4 h; for inhibition in vivo at 20 mg/kg: dose 20 mpk; for inhibition in vivo at 25 mg/kg: dose 25 mpk; for inhibition in vivo at 40 mg/kg: dose 40 mpk
Protocol: (§1) Reversed Passive Arthus Reaction (RPAR) Assay
(§2) Groups of 4 male rats were injected in the penile vein with antigen (1 mg BSA in 0.2 mL of saline per rat) and 0.5 hour later injected in the pleural cavity with antibody (1.0 mg antibody protein in the IgG fraction of rabbit anti-BSA in 0.2 mL). […] After 4 hours the animals were killed with CO2, and the pleural cavities were opened and the exudate drained into a graduated conical glass centrifuge tube containing indomethacin (1.8 ug) and nordihydroguaiaretic acid (NDGA) (15 ug) to block ex vivo metabolite synthesis. The volume of the exudate was measured. The cavity was then washed out with saline-EDTA to achieve a final volume of 5.0 mL. The number of cells were determined in a Colulter Counter. The cells were spun-down (1000×g) and the exudate supernatant was added to 4 volumes of 95% ethanol and samples were kept on ice for 30 minutes. After removal of the protein precipitate (2,500×g) the ethanol extract of the exudate was dried under N2 and then stored at -20° C. For radioimmunoassay (RIA) analysis the samples were redissolved in water to a volume of 1 mL per rat. Utilizing internally spiked samples, recovery of TXB2 (tritiated thromboxane B2) and LTE4 (tritiated leukotriene-E4) from exudates was determined to be 84±2% (SEM) and 89±2% (N=4), respectively. Exudate samples were directly assayed in duplicate with the commercial ^3 H-TXB2 RIA kit from New England Nuclear and the ^3 H-LTC4 /D4 /E4 kit from Amersham. The assay was validated using reversed-phase HPLC analysis of LTs in the standard procedure described by M. W. Musch, R. W. Bryant, C. Coscollaela, R. F. Myers and M. I. Siegel, Prostaglandins, Vol. 29, pp 405-430 (1985). Samples of ethanol exudate extract were "spiked" with ^3 H-LTs to follow HPLC purification and recovery.

5-LO = test: Reversed Passive Arthus Reaction (RPAR) in the pleural cavity: LTE-4 in exudate; type: in vivo, male rats
Protocol: as §1, §2

CO (cyclooxygenase) = test: Reversed Passive Arthus Reaction (RPAR) in the pleural cavity: TXB-2 in exudate; type: in vivo, male rats
Protocol: as §1, §2

5-lipoxygenase = target: T1, 5-lipoxygenase (Homo sapiens, UniProt P09917); test: 5-Lipoxygenase Assay in human polymorphonuclear (PMN) leukocytes, 5-HETE production; type: cell-based; conditions: 15 μM
T1 construct: Human polymorphonuclear (PMN) leukocytes (neutrophils) are obtained from normal healthy volunteers; endogenous in cells; host or cells: human polymorphonuclear leukocytes (neutrophils) from blood of healthy volunteers
T1 sequence (P09917 1-674): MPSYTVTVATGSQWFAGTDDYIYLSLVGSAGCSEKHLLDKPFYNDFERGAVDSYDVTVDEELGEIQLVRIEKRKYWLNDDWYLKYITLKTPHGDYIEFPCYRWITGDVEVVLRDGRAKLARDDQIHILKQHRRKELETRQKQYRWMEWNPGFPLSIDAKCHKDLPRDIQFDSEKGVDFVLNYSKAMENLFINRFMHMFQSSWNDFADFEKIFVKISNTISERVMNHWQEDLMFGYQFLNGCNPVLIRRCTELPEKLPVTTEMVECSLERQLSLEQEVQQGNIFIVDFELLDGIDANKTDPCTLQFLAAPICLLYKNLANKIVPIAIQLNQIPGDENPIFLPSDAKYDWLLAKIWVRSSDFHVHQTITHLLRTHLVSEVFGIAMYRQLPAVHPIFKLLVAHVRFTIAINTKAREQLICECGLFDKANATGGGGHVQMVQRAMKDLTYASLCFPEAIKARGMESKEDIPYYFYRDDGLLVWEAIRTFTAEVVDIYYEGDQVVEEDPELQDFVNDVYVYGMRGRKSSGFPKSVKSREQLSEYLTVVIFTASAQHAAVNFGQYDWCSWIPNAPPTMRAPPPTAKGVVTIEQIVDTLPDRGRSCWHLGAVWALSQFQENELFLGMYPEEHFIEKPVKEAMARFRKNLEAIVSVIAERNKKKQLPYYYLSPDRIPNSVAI
Protocol: Human polymorphonuclear (PMN) leukocytes (neutrophils) are obtained from normal healthy volunteers by venipuncture and collected with heparin anticoagulant. Neutrophils are isolated by Dextran/Ficol sedimentation as described (Billah et al, J. Biol. Chem. 260, 6899-6906 (1985)). In brief, 30 ml of blood is mixed with 5 ml of dextran (Sigma) solution and kept at 37° C. for 30 min. The upper white cellrich layer is removed and 10 ml is layered on 9 ml of Ficol-Paque solution (Pharmacia) and centrifuged at 280×g for 10 min. at 5° C. The supernatant is removed and the neutrophil pellet is resuspended in HEPES buffer containing 25 mM N-2-hydroxyethylpiperazine-N^1 -2 ethanesulfonic acid(HEPES), 125 mM NaCl, 2.5 mM KCL, 0.7 mM MgCl2, 0.5 mM and 10 mM glucose at pH 7.4. The red cells in the suspension are lysed by hypotonic shock. The neutrophils are washed by centrifugation in HEPES buffer two times and finally resuspended at a concentration of 20×10^6 cells/ml in the presence of 1 mM CaCl2.
Neutrophils (0.2 ml of suspension) are preincubated with dimethylsulfoxide (DMSO) vehicle with or without test compound (1 ul) for 4 minutes then incubated for 5 minutes with ^14 C-arachidonic acid (Amersham, 59 Ci/mole) at a 9 uM final concentration, and the calcium ionophore A23187 (Calbiochem) at a 1 uM final concentration. These stimulants are added in 10 ul of water:ethanol (9:1). The reaction is stopped by addition of methanol (0.4 ml), and cellular debris is removed by centrifugation. Aliquots (100 ul) of the incubations are run on a Waters two pump high performance liquid chromatography (HPLC) system fitted with a DuPont Zorbax ODS, 5 u, 4×80 […] Reliance Cartridge column and C18 "Guard Pak". The column is initially eluted at 2 ml/min with 80 percent of the mixture water:methanol:acetic acid (46:54:0.08) containing 1 mM EDTA adjusted to pH 6.0 with ammonium hydroxide (Pump A) and 20% methanol (Pump B). At 10 minutes, a linear gradient is established. to reach 100 percent methanol (Pump B) at 27 minutes. Between 27 and 28 minutes, methanol is exchanged for the initial eluting solvent and by 35 minutes the column is reequilibrated for the next sample. The effluent is analyzed by a continuous flow radioactivity monitor (model ROMONA-D) interfaced with a Hewlett Packard Lab Automation System for quantitation of radioactive products. This includes the major 5-lipoxygenase product, 5-hydroxyeicosatetraenoic acid (5-HETE) which elutes at 20 minutes. The results with and without test compound are used to calculate percent inhibition of 5-HETE production.

cyclooxygenase = target: T2, cyclooxygenase (Homo sapiens, UniProt P23219); test: Cyclooxygenase Assay with Human Platelets, HHT production; type: cell-based; conditions: 15 μM
T2 construct: Cyclooxygenase Assay with Human Platelets; endogenous in cells; host or cells: human blood platelets from healthy volunteers
T2 sequence (P23219 24-599): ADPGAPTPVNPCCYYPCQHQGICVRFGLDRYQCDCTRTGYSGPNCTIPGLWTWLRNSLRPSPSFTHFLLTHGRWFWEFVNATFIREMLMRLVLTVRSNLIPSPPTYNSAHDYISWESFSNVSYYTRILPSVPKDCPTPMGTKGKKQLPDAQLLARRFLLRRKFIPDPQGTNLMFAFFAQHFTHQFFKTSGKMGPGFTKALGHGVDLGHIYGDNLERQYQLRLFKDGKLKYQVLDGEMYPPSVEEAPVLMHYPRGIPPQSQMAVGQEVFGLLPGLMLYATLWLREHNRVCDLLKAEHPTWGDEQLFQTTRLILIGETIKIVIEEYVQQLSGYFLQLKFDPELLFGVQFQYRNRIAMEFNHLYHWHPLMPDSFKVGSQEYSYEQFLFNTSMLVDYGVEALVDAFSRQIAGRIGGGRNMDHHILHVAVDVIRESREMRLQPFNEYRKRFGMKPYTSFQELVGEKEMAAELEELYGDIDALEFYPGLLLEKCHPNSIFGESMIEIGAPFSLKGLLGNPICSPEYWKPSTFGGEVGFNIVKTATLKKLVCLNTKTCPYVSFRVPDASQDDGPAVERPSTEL
Protocol: Cyclooxygenase Assay with Human Platelets
Blood is collected in acid-citrate-dextrose anticoagulant by venipuncture from normal healthy volunteers who said that they were not on any medication for the previous two weeks. Platelets are isolated by the procedure of Okuma and Uchino (Blood 54:1258-1271 (1979)). In brief, blood is centrifuged at 4° C. at 200×g for 10 minutes to sediment red and white cells. The platelet rich plasma (PRP) supernatant is removed and mixed with one-tenth volume of 77 mM EDTA, pH 7.2 and prostacyclin sodium salt is added to the PRP at a final concentration of 1 nanogram per milliliter(ng/mL). The PRP is centrifuged at 1700×g, 4° C. for 15 minutes. The platelet pellet is resuspended in the HEPES buffer described in the 5-lipoxygenase section above which additionally contained 1 ng/mL prostacyclin and 0.5 mM ethylene glycolbis(B-aminoethyl ether) N,N,N',N'-tetraacetic acid (EGTA) and the suspension is recentrifuged at 1,700×g, 4° C. for 15 minutes. The pellet is resuspended in HEPES buffer containing 0.5 mM EGTA and 1.5 mM CaCl2 at a cell count of 200,000 cells/ul. Platelets (0.2 ml of suspension) are preincubated with test compounds and the ^14 C-arachidonic acid plus the calcium ionophore A23187 stimulant exactly as described for the 5-lipoxygenase assay. The cyclooxygenase product 12-hydroxyheptadecatrienoic acid (HHT) is isolated and quantitated by the HPLC system used for the 5-lipoxygenaseassay. HHT elutes from this system at about eleven minutes. Results are expressed as percent inhibition of HHT production by the test compounds versus the test vehicle alone.

[2] = read-out: RPAR-Pleural Cavity % Inhibition cells
[3] = read-out: RPAR-Pleural Cavity % Inhibition fluid

Structure (SMILES) | inhibition in vivo at 25 mg/kg [1, 2] | inhibition in vivo at 25 mg/kg [1, 3] | RPAR-Pleural Cavity % Inhibition LTE-4 (5-LO; dose 25 mpk) | RPAR-Pleural Cavity % Inhibition TXB-2 (CO (cyclooxygenase); dose 25 mpk) | other results
CC1(C)C(=O)N(c2ccc(F)cc2)c2ncccc21 [Compound 9, 1,3-dihydro-3,3-dimethyl-1-(4-fluorophenyl)-2H-pyrrolo[2,3-b]pyridin-2-one] | – | – | – | – | inhibition in vivo at 20 mg/kg [1, 2]: 70%; inhibition in vivo at 20 mg/kg [1, 3]: 43%; RPAR-Pleural Cavity % Inhibition LTE-4 (5-LO; dose 20 mpk): 36%; RPAR-Pleural Cavity % Inhibition TXB-2 (CO (cyclooxygenase); dose 20 mpk): 53%
CC1(C)C(=O)N(c2cccc(Cl)c2)c2ncccc21 [Compound 5, 1-(3-chlorophenyl)-1,3-dihydro-3,3-dimethyl-2H-pyrrolo[2,3-b]pyridin-2-one] | 51% | 49% | 59% | 62% | –
CC1(C)C(=O)N(c2ccccc2)c2ncccc21 [Compound 1, 1,3-dihydro-3,3-dimethyl-1-phenyl-2H-pyrrolo[2,3-b]pyridin-2-one] | – | – | – | – | inhibition in vivo at 40 mg/kg [1, 2]: 70%; inhibition in vivo at 40 mg/kg [1, 3]: 60%; RPAR-Pleural Cavity % Inhibition LTE-4 (5-LO; dose 40 mpk): 54%; RPAR-Pleural Cavity % Inhibition TXB-2 (CO (cyclooxygenase); dose 40 mpk): 54%
CC1(C)C(=O)N(c2ccc(Cl)cc2)c2ncccc21 [Compound 2, 1-(4-chlorophenyl)-1,3-dihydro-3,3-dimethyl-2H-pyrrolo[2,3-b]pyridin-2-one] | 73% | 83% | 87% | 78% | –
COc1ccc(N2C(=O)C(C)(C)c3cccnc32)cc1 [Compound 8, 1,3-dihydro-3,3-dimethyl-1-(4-methoxyphenyl)-2H-pyrrolo[2,3-b]pyridin-2-one] | 63% | 42% | 0% | 34% | –
CC1(C)C(=O)N(c2ccc(Cl)c(Cl)c2)c2ncccc21 [Compound 6, 1-(3,4-dichlorophenyl)-1,3-dihydro-3,3-dimethyl-2H-pyrrolo[2,3-b]pyridin-2-one] | 26% | 25% | 46% | 44% | –
CN1C(=O)C(C)(C)c2cccnc21 [Compound 3, 1,3-dihydro-1,3,3-trimethyl-2H-pyrrolo[2,3-b]pyridin-2-one] | 69% | 53% | 62% | 17% | –
CC(=O)OCCSC1(C(C)=O)C(=O)N(c2ccccc2)c2ncccc21 (centres unmarked) [Compound 28, 1,3-dihydro-3-[2-(acetoxy)-ethylthio)-3-(1-oxoethyl)-1-phenyl-2H-pyrrolo[2,3-b]pyridin-2-one] | – | – | – | – | PMN Assay % Inhibition 5-HETE (5-lipoxygenase): 96%; inhibition at 15 µM (5-lipoxygenase): 80%; % inhibition of HHT production in human platelets (cyclooxygenase): 29%; % inhibition of HHT production in human platelets at 15 µM (cyclooxygenase; read-out: PMN Assay % Inhibition HHT): 35%
